Data: patent US7655225B2, “Methods of expanding stem and progenitor cells and expanded cell populations obtained thereby” (Gamida Cell, Ltd., priority 2002, dated 2010)

How the values were obtained:
CD34+ cells [1] = assay: Self-renewal potential: colony-forming cells (CFU) from CD34+ cultures; format: cell-based, human; conditions: five-weeks culture; 10 or 20 μM, added first three weeks; FIG. 9
Text: Ex vivo expansion of progenitor cells: Enriched CD34^+ cell fractions were cultures in 24-well Costar Cell Culture Clusters (Corning Inc., Corning, N.Y.) or in Culture Bags (American Fluoroseal Corp.) with alpha minimal essential medium supplemented with 10% fetal bovine serum (FBS, Biological Industries), at about 1-3×10^4 cells/ml medium. The media were further supplemented with the following human recombinant cytokines (all obtained from Perpo Tech, Inc., Rocky Hill, N.J.): Thrombopoietin (TPO), 50 ng/ml; interleukin 6 (IL-6), 50 ng/ml; FLT-3 ligand, 50 ng/ml; and IL-3, 20 ng/ml. The cultures were incubated at 37° C. in an atmosphere of 5% CO2 in air with extra humidity. At weekly intervals cell cultures were semi-depopulated and supplemented with fresh medium containing the cytokines. Following different incubation periods, the cells were harvested, stained with trypan blue and enumerated. The total cell counts, numbers of CD34^+ cells and subsets thereof, and the number of colony-forming cells (CFU) are presented herein as cumulative numbers, with the assumption that the cultures had not been passaged, namely, the numbers of cells per ml were multiplied by the number of passages performed. Self-renewal potential evaluations: The self-renewal potential of stem cells was determined in vitro by long-term colony formation. Cells were washed and seeded in a semi-solid methylcellulose medium supplemented with 2 IU/ml erythropoietin ([…] Int., Switzerland), stem cell factor and IL-3, both at 20 ng/ml (Perpo Tech), and G-CSF and GM-CSF, both at 10 ng/ml (Perpo Tech). The resulting colonies were scored after two weeks of incubation at 37° C. in a humidified atmosphere of 5% CO2 in air. Colonies were classified as blast, mixed, erythroid, myeloid, and megakaryocytic, according to their cellular composition.

CD34+ cells [2] = assay: Ex vivo expansion of purified CD34+ cells in liquid culture: cell enumeration and FACS of subsets; format: cell-based, human; conditions: three weeks, 5, 10 or 20 μM
Procedure: Sample collection and processing: Samples were obtained from umbilical human cord blood and processed within 12 hours. The blood cells were mixed with 3% Gelatin (Gigma, St. Louis, Mo.) and allowed to sediment for 30 minutes to remove most red blood cells. The leukocyte-rich fraction was harvested, layered on Ficoll-Hypaque (density 1.077 gram/ml; Sigma) and centrifuged at 400 g for 30 minutes at room temperature. The mononuclear cells in the interface layer were then collected, washed three times in phosphate-buffered saline (PBS; Biological Industries), and re-suspended in PBS solution which contains 1% bovine serum albumin (BSA; Sigma). The cells were then incubated at 4° C. for 30 minutes with murine monoclonal anti CD34^+ antibody (0.5 μg/10^6 mononuclear cells) and were thereafter isolated using two cycles of immuno-magnetic separation using the miniMACS CD34^+ Progenitor Cell Isolation Kit (Miltenyi-Biotec, Auburn, Calif.) according to the manufacturer's recommendations. The purity of the CD34^+ cells obtained ranged between 95% and 98%, based on Flow Cytometry evaluation (see below). Ex vivo expansion of progenitor cells: Enriched CD34^+ cell fractions were cultures in 24-well Costar Cell Culture Clusters (Corning Inc., Corning, N.Y.) or in Culture Bags (American Fluoroseal Corp.) with alpha minimal essential medium supplemented with 10% fetal bovine serum (FBS, Biological Industries), at about 1-3×10^4 cells/ml medium. The media were further supplemented with the following human recombinant cytokines (all obtained from Perpo Tech, Inc., Rocky Hill, N.J.): Thrombopoietin (TPO), 50 ng/ml; interleukin 6 (IL-6), 50 ng/ml; FLT-3 ligand, 50 ng/ml; and IL-3, 20 ng/ml. The cultures were incubated at 37° C. in an atmosphere of 5% CO2 in air with extra humidity. At weekly intervals cell cultures were semi-depopulated and supplemented with fresh medium containing the cytokines. Following different incubation periods, the cells were harvested, stained with trypan blue and enumerated. The total cell counts, numbers of CD34^+ cells and subsets thereof, and the number of colony-forming cells (CFU) are presented herein as cumulative numbers, with the assumption that the cultures had not been passaged, namely, the numbers of cells per ml were multiplied by the number of passages performed. Surface antigen analysis: At different time intervals, the cultured cells were harvested, washed with a PBS solution containing 1% BSA and 0.1% sodium azide (Sigma), and stained, at 4° C. for 60 minutes, with FITC-labeled anti CD45 monoclonal antibody and either PE-labeled anti CD34 (HPCA-2) monoclonal or PE-labeled control mouse Ig (all from Immunoquality Products, the Netherlands). The cells were then washed with the same PBS solution and were analyzed by a flow cytometer, as described hereinafter. Flow cytometry analysis: Cells were analyzed and sorted using FACS caliber flow cytometer (Becton-Dickinson, Immunofluorometry systems, Mountain View, Calif.). Cells were passed at a rate of 1,000 cells/second through a 70 μm nozzle, using a saline sheath fluid. A 488 nm argon laser beam at 250 mW served as the light source for excitation. Fluorescence emission of ten thousand cells was measured using a logarithmic amplification and analyzed using CellQuest software. Determination of the density of stem and progenitor subset populations following expansion: Following an incubation period, the CD34^+ cells were re-selected using miniMACS Miltenyi kit. The purity of the positive fraction of selected CD34^+ cells was confirmed by FACS analysis as well as by cell morphology analysis. The density of CD34^+ cells, in proportion (percentage) to total cells, was determined directly via FACS analysis. The densities of CD34^+ subset populations were determined from the purified CD34^+ fraction. Re-selected CD34^+ cells were stained with lineage specific antigens followed by FACS analysis to determine the percentage of the subset populations within the total number of CD34^+ cells. […]

Structure (SMILES): [Cl][Cu][Cl] [copper chloride, reference compound]
- colony-forming cells of CD34+ vs untreated or TEPA-Cu treated cultures (CD34+ cells [1]): substantially fewer
- number of total cells vs untreated control (CD34+ cells [2]; FIG. 8a): did not differ significantly
- stem cells (CD34+) vs untreated or chelate-treated cultures (CD34+ cells [2]; FIG. 8b): fewer
- CD34+ CD38− stem/progenitor subset cells vs untreated or chelate-treated cultures (CD34+ cells [2]; FIG. 8c): fewer
- CD34+ Lin− stem/progenitor subset cells vs untreated or chelate-treated cultures (CD34+ cells [2]; FIG. 8d): fewer
